Tested on: brain of rats subjected to closed-head diffuse severe TBI (sTBI)
Experiment: HPLC of energy metabolites, antioxidants and oxidative/nitrosative stress biomarkers in brain, dose study after sTBI (Example 3)
Format: in vivo, rat
Details: for NAD^+/NADH ratio in brain homogenate: calculated, adimensional, rats 7 days post-sTBI
Excerpt: Male Wistar rats (n=160) of 300-350 g body weight were used in this study.
1994, 80: 291-300. This model causes diffuse axonal injury and it is able to reproduce the physical and mechanical characteristics of the diffuse TBI in humans.
Rats were placed prone on a bed of specific polyurethane foam inserted in a special container. This foam dissipates the major part of the potential energy (deriving from the mechanical forces) and prevents any rebound of the animal after the impact that could produce spinal damages.
These time points are coincident with the worst biochemical derangement (2 days) or, in the case of a mildly injured brain, with a full metabolic recovery (7 days).
The drug treatment consisted in a subcutaneous injection of 0.5 ml of LMW-DS (Tikomed) and administered at 3 different concentrations (1, 5 and 15 mg/kg body weight), according to the schematic protocol described below.
Sham-operated animals underwent the same procedure of anesthesia but TBI and were used as the control group.
Rats used in this study were divided into 4 groups in order to carry out a study on the efficacy of three different concentrations of LMW-DS at two different times post TBI. As subsequently specified, in each group there were animals subjected to a specific treatment for metabolic analyses and other animals intended to histo-morphological studies, according to the procedures described below.
Rats subjected to sTBI and receiving a single administration of LMW-DS after 30 minutes post-TBI, with sacrifice at 2 days post-TBI. Animals were divided in the following subgroups:
Rats subjected to sTBI and receiving a single administration of LMW-DS after 30 minutes post-TBI, with sacrifice at 7 days post-TBI. Animals were divided in the following subgroups:
Rats (n=12) subjected to sTBI and receiving repeated administrations of the maximal dose of LMW-DS (15 mg/kg b.w.) after 30 minutes, 3 days and 5 days post-TBI, with sacrifice at 7 days post-TBI. Four additional rats were used for the histo-morphological studies. Total rats in this group: n=16
To minimize metabolite loss, an in vivo craniectomy was performed in all animals during anesthesia. The rat skull was carefully removed, the brain was exposed, sharply cut along the sagittal fissure and the two hemispheres were separated. The hemispheres dedicated to biochemical analyses were freeze-clamped by aluminum tongues pre-cooled in liquid nitrogen and then immersed in liquid nitrogen. The freeze-clamping procedure was introduced to accelerate freezing of the tissue, thus minimizing potential metabolite loss.
Tissue homogenization for metabolite analyses was effected as described below. After the wet weight (w.w.) determination, the frozen hemispheres were placed into 7 ml of ice-cold, nitrogen-saturated, precipitating solution (1:10 w/v) composed by CH3CN+10 mM KH2PO4, pH 7.40, (3:1; v:v), and the homogenization was performed using an Ultra-Turrax homogenizer set at 24,000 rpm/min (Janke & Kunkel, Staufen, Germany). After centrifugation at 20,690×g, for 10 min at 4° C., the clear supernatants were saved, pellets were supplemented with an aliquot of 10 mM KH2PO4 and homogenized again as described above and saved overnight at −20° C. in order to obtain a complete recovery of aqueous phase from tissue. A second centrifugation was performed (20,690×g, for 10 min at 4° C.) and supernatants combined with those previously obtained were extracted by vigorous agitation with a double volume of HPLC-grade CHCl3 and centrifuged as above.

[1] = 1 mg/kg b.w. single, 30 min after trauma, 2 days post-TBI
[2] = 1 mg/kg b.w. single, 30 min after trauma, 2 days post-sTBI
[3] = 5 mg/kg b.w. single, 30 min after trauma, 2 days post-TBI
[4] = 5 mg/kg b.w. single, 30 min after trauma, 2 days post-sTBI
[5] = 15 mg/kg b.w. single, 30 min after trauma, 2 days post-sTBI
[6] = rats 2 days post-TBI, single 1 mg/kg b.w. 30 min after trauma
[7] = rats 2 days post-TBI, single 5 mg/kg b.w. 30 min after trauma
[8] = rats 2 days post-TBI, single 15 mg/kg b.w. 30 min after trauma

sodium salt of dextran sulfate [LMW-DS]
NO2 brain concentration [1]: 158.36 ± 19.08 nmol/g w.w. | acetyl-CoA brain concentration [1]: 27.74 ± 3.23 nmol/g w.w. | ascorbic acid brain concentration [1]: 2567.35 ± 147.76 nmol/g w.w. | AMP brain concentration [2]: 62.04 ± 7.46 nmol/g w.w. | CMP brain concentration [2]: 29.39 ± 6.00 nmol/g w.w. | CTP brain concentration [2]: 33.01 ± 7.63 nmol/g w.w. | GDP glucose brain concentration [2]: 65.66 ± 41.61 nmol/g w.w. | GMP brain concentration [2]: 205.06 ± 25.74 nmol/g w.w. | IMP brain concentration [2]: 45.97 ± 8.65 nmol/g w.w. | NAD^+/NADH ratio (adimensional) [2]: 33.91 ± 9.32 | UDP-Gal brain concentration [2]: 118.50 ± 9.89 nmol/g w.w. | UDP-GalNac brain concentration [2]: 21.24 ± 3.13 nmol/g w.w. | UDP-Glc brain concentration [2]: 45.14 ± 6.68 nmol/g w.w. | UDP-GlcNac brain concentration [2]: 96.62 ± 8.80 nmol/g w.w. | UMP brain concentration [2]: 148.04 ± 20.45 nmol/g w.w. | UTP brain concentration [2]: 104.07 ± 16.34 nmol/g w.w. | GSH brain concentration [3]: 2067.79 ± 301.54 nmol/g w.w. | NO2 brain concentration [3]: 218.12 ± 26.28 nmol/g w.w. | NO3 brain concentration [3]: 148.41 ± 32.30 nmol/g w.w. | acetyl-CoA brain concentration [3]: 34.85 ± 4.05 nmol/g w.w. | ascorbic acid brain concentration [3]: 2626.68 ± 151.17 nmol/g w.w. | AMP brain concentration [4]: 67.03 ± 11.85 nmol/g w.w. | CTP brain concentration [4]: 37.72 ± 7.63 nmol/g w.w. | GDP brain concentration [4]: 183.27 ± 25.32 nmol/g w.w. | GDP glucose brain concentration [4]: 83.81 ± 37.35 nmol/g w.w. | NAD^+ brain concentration [4]: 376.85 ± 64.15 nmol/g w.w. | NAD^+/NADH ratio (adimensional) [4]: 36.61 ± 6.09 | UDP-GalNac brain concentration [4]: 20.75 ± 3.06 nmol/g w.w. | UTP brain concentration [4]: 142.82 ± 22.43 nmol/g w.w. | GSH brain concentration (15 mg/kg b.w. single, 30 min after trauma, 2 days post-TBI): 2418.94 ± 352.75 nmol/g w.w. | ADP-ribose brain concentration [5]: 23.06 ± 4.63 nmol/g w.w. | AMP brain concentration [5]: 66.26 ± 10.74 nmol/g w.w. | CTP brain concentration [5]: 37.53 ± 7.59 nmol/g w.w. | GDP brain concentration [5]: 194.61 ± 26.88 nmol/g w.w. | GDP glucose brain concentration [5]: 84.24 ± 37.54 nmol/g w.w. | GMP brain concentration [5]: 178.88 ± 22.46 nmol/g w.w. | NADPH brain concentration [5]: 8.93 ± 0.74 nmol/g w.w. | NADP^+ brain concentration [5]: 17.75 ± 4.06 nmol/g w.w. | NAD^+ brain concentration [5]: 475.32 ±80.91 nmol/g w.w. | NAD^+/NADH ratio (adimensional) [5]: 44.40 ± 7.67 | UDP brain concentration [5]: 80.00 ± 8.20 nmol/g w.w. | UDP-GalNac brain concentration [5]: 22.37 ± 3.30 nmol/g w.w. | UDP-Glc brain concentration [5]: 43.41 ± 6.43 nmol/g w.w. | UDP-GlcNac brain concentration [5]: 108.74 ± 9.90 nmol/g w.w. | UMP brain concentration [5]: 147.53 ± 20.38 nmol/g w.w. | UTP brain concentration [5]: 108.21 ± 16.99 nmol/g w.w. | concentrations of ascorbic acid and reduced glutathione (GSH) (2 days post impact): significantly ameliorated | NAA concentration (FIG. 7) (2 days post impact, 5 or 15 mg/kg b.w.): significantly higher than values found in sTBI rats | concentrations of UTP and ADP (2 days post-sTBI): No effects | nicotinic coenzyme pool (2 days post-sTBI, 15 mg/kg b.w.): significant protection | Acetyl-CoA (2 days post-sTBI, 5 or 15 mg/kg b.w.): partial rescue | high energy phosphates (ATP, GTP, and CTP) (2 days post-sTBI, all three dosages (1, 5, 15 mg/kg)): Significantly higher values | ATP level, decrease versus value of controls (7 days post impact, untreated sTBI 35% decrease): 16% | NAA concentration, decrease versus value of controls (7 days post impact, untreated sTBI 48% lower): 16% | NAD+ level and NAD/NADH ratio (7 days post injury, single and repeat 15 mg/kg b.w.): normalize | NAA (FIG. 11) (7 days post sTBI, increasing single doses or repeat maximal dose): dose dependent increase | CoA-SH and Acetyl-CoA (7 days post-sTBI, 5 or 15 mg/kg b.w. (single and repeat)): Remarkable positive effects | ATP (FIG. 8) (7 days post-sTBI, any dose tested): significant increases | NAD^+/NADH ratio in brain homogenate (repeated 15 mg/kg b.w.): 37.47 ± 9.46 | NAD^+/NADH ratio in brain homogenate (single 1 mg/kg b.w.): 33.91 ± 9.32 | NAD^+/NADH ratio in brain homogenate (single 5 mg/kg b.w.): 33.90 ± 7.19 | ADENOSINE concentration in brain homogenate [6]: 68.91 ± 16.50 nmol/g w.w. | CDP choline concentration in brain homogenate [6]: 8.23 ± 1.22 nmol/g w.w. | CREATININE concentration in brain homogenate [6]: 17.66 ± 3.29 nmol/g w.w. | CYTIDINE concentration in brain homogenate [6]: 13.79 ± 2.49 nmol/g w.w. | CYTOSINE concentration in brain homogenate [6]: 13.47 ± 1.65 nmol/g w.w. | URACIL concentration in brain homogenate [6]: 17.18 ± 3.36 nmol/g w.w. | CYTOSINE concentration in brain homogenate [7]: 13.65 ± 1.67 nmol/g w.w. | URACIL concentration in brain homogenate [7]: 17.83 ± 3.48 nmol/g w.w. | URIDINE concentration in brain homogenate [7]: 117.21 ± 20.64 nmol/g w.w. | XANTHINE concentration in brain homogenate [7]: 6.71 ± 0.70 nmol/g w.w. | ADENOSINE concentration in brain homogenate [8]: 53.25 ± 12.75 nmol/g w.w. | CDP choline concentration in brain homogenate [8]: 7.07 ± 1.05 nmol/g w.w. | CYTIDINE concentration in brain homogenate [8]: 11.46 ± 2.07 nmol/g w.w. | CYTOSINE concentration in brain homogenate [8]: 13.57 ± 1.66 nmol/g w.w.
